Where “and” joins values, the source holds several entries; their conditions need not be identical. Equal values may be shown once. Read-outs that look alike come from different tables or passages of the source.
What was measured:
[1] = pig, in vivo, iv
Excerpt: (§1) Eight healthy, stress resistant, 6-week-old male piglets (Landrace × Large White × Maximus, Seghers Hybrid®, Wuustwezel, Belgium) were recruited for this study. Upon arrival piglets were group-housed in standard pig stables (2.30 × 2.40 m) with ad libitum access to water and feed (Piggistart Opti®, Aveve, Leuven, Belgium). During the whole experimental period, stables were enriched with rubber toys, balls of different size, and cotton towels. After a 5-day acclimatization period, a double-lumen jugular catheter was inserted following the procedure described by Gasthuys et al., permitting accurate intravenous (IV) administration of the renal markers and blood collection ([Gasthuys et al., 2017b]). During anesthesia, a human stoma ring (Esteem synergy® Uro, 48 mm, ConvaTec, Belgium) was attached around the prepuce of the piglets to allow urine collection ([Gasthuys et al., 2017b]). After surgery, the pigs were housed individually to avoid displacements of the catheters and stoma rings. Catheters were flushed at least twice daily with heparinized 0.9% NaCl (50 IU/ml), and the bandages were changed daily.
(§2) After a one day recovery period, urine pouches were attached to the stoma ring just before administration of the drugs. […] Blood was sampled via the other lumen of the catheter at 0, 5, 15, 30, 45, and 60 min, and 2, 4, 6, 8, 12, 24, 36, 48, and 72 h post administration and collected into K3EDTA collection tubes (Vacutest®, Piove die Sacco, Kima, Italy). The samples were kept on ice and centrifuged (2,095 × g, 10 min, 4°C) within 2 h. Multiple timed urine collections were performed over a 48 h time period. The total volume of urine voided in each time period was registered. Aliquots of plasma were stored at ≤−80°C until analysis. Urine samples were initially stored at −20°C for 6 weeks, but were subsequently stored at −80°C for further storage.
(§3) Total plasma iohexol and PAH concentrations were quantified simultaneously using a validated ultrahigh performance liquid chromatography tandem mass spectrometry (UHPLC-MS/MS) method as previously described by [Dhondt et al. (2019)] […] The same UHPLC method was used for analysis of PAH in urine samples with slight modifications. The LLOQ was 0.25 µg/ml.
(§4) Pharmacokinetic modeling of the plasma concentration–time data was performed using Phoenix® 8.1 (Certara, Cary, NC, USA). Values below the LOQ were excluded from the dataset. […] A multiplicative error model was used. […] The estimated primary parameters were volume of distribution (Vd) and total body clearance (CLTOT). Also the following secondary parameters were calculated: elimination half-life (T1/2el), elimination rate constant (Ke), volume of distribution at steady state (Vss), and the area under the curve from time 0 h to infinity (AUC0→inf).
(§5) The cumulative amount of unchanged compound recovered in the urine (Ae) was calculated taking the sum of the amount excreted at every collection point. This amount was calculated by multiplying the observed concentration by the volume collected at every collection point.
(§6) where AUC0→inf is the area under the plasma concentration–time curve extrapolated to infinity. […] The AUC0→48h was calculated by noncompartmental analysis (NCA) using the linear up-log down trapezoidal method. The nonrenal clearance (CLNR) was obtained by subtracting the CLR from CLTOT. The CLTOT of iohexol is a measure for the GFR. The CLR of PAH is used to estimate the ERPF. The filtration fraction (FF) was calculated by

plasma proteins [2] = system: plasma proteins; design: method as in Humphrey et al., 1985; conditions: other species like humans, dogs, rats, and mice; ref Humphrey et al., 1985; cited from earlier work
[3] = healthy human adults, ref Gross et al. (2001), cited from earlier work; for Net tubular reabsorption (CLREA): fluconazole given orally; for Net tubular secretion (CLSECR): pindolol given orally
[4] = Pharmacokinetics and renal clearance of a renal marker cocktail after IV bolus in 7-week-old male pigs; conditions: for CL renal: plasma and urine
Excerpt: as §1, §2, §3, §4, §5, §6

[5] = design: method as in Gasthuys et al., 2017a; conditions: pigs of 7 weeks of age; ref Gasthuys et al., 2017a; cited from earlier work
plasma proteins [6] = test: In vitro plasma protein binding by ultrafiltration in spiked pig plasma; assay type: in vitro ADME; conditions: 39°C, fluconazole corrected for NSB
Protocol: Three aliquots of each concentration level were analyzed the same way as the pharmacokinetic (PK) study samples as described above to determine the total plasma concentration. Three other aliquots of each concentration were incubated for 1 h in a hot water bath of 39°C to replicate the pig's core body temperature and subsequently transferred onto an ultrafiltration device. […] Thereafter, the obtained filtrate was analyzed in the same way as the PK study samples to determine the unbound plasma concentration. The following equation was used to determine the unbound fraction in plasma: […]
The duration of centrifugation was reduced to 2.5 and 1.0 min for Microcon® and Amicon® filters, respectively.
Cunbound,corrected=Cunbound,measured/1-NSB

[7] = humans, cited from earlier work
porcine kidney = system: porcine kidney; design: method as in Gyrd-Hansen and Rasmussen (1970); conditions: in vivo, pigs; ref Gyrd-Hansen and Rasmussen (1970); cited from earlier work
plasma proteins [8] = system: plasma proteins; design: method as in Hsyu and Giacomini, 1985; conditions: humans; ref Hsyu and Giacomini, 1985; cited from earlier work
ERPF and GFR = system: ERPF and GFR; design: method as in Epstein et al., 1985; conditions: dogs, IV administration; ref Epstein et al., 1985; cited from earlier work
[9] = design: method as in Friedli et al., 1986; conditions: pigs with induced myocardial infarction, IV 0.05 mg/kg; ref Friedli et al., 1986; cited from earlier work
[10] = humans; ref Schwarz, 1982; cited from earlier work
GFR = conditions: hypertensive patients, ref Wainer et al., 1980, cited from earlier work
[11] = corrected for estimated mean BSA
[12] = male, Landrace × Large White × Maximus (Seghers Hybrid), pig, plasma, iv
[13] = male, Landrace × Large White × Maximus (Seghers Hybrid), pig, plasma, iv, 0.5 mg/kg
[14] = 7-week-old male pigs, indexed to BSA, mean ± SD

## OC(Cn1cncn1)(Cn1cncn1)c1ccc(F)cc1F [Fluconazole, fluconazole]
[1]; male, Landrace × Large White × Maximus (Seghers Hybrid)
  CLNR: 0.13 ± 0.039 mL/min/kg
Plasma proteins [2]
  Plasma protein binding: ~ 12%
[3]; [11]
  Net tubular reabsorption (CLREA): 49.21 ± 15.34 ml/min/m²
[3]; corrected for mean BW 72 kg
  Net tubular reabsorption (CLREA): 1.29 ± 0.40 mL/min/kg
[4]; male, Landrace × Large White × Maximus (Seghers Hybrid), pig, iv, 0.5 mg/kg, CLR, IV bolus, 7-week-old male pigs, n = 6, Ae/AUC0→inf (fluconazole: Ae 48 h/AUC0→48h), mean ± SD
  CL renal: 0.32 ± 0.05 mL/min/kg
[4]; male, Landrace × Large White × Maximus (Seghers Hybrid), pig, iv, 0.5 mg/kg, Renal clearance calculated over a time period of 24 h, pigs, IV 0.5 mg/kg, data up to 24 h
  CL renal: 0.33 ± 0.06 mL/min/kg
[4]; male, Landrace × Large White × Maximus (Seghers Hybrid), pig, iv, 0.5 mg/kg, Renal clearance estimated over 48 h, pigs, IV 0.5 mg/kg, data up to 48 h
  CL renal: 0.32 ± 0.05 mL/min/kg
[4]; [12]
  clearance: 0.45 ± 0.049 mL/min/kg
[4]; [13]
  Vd: 0.98 ± 0.04 L/kg
  clearance: 0.45 ± 0.05 mL/min/kg
  half-life: 25.7 ± 2.75 h
  k el: 8.33e-06 s⁻¹

## CC(=O)N(CC(O)CO)c1c(I)c(C(=O)NCC(O)CO)c(I)c(C(=O)NCC(O)CO)c1I (centres unmarked) [Iohexol, iohexol]
[5]
  Iohexol clearance: 100.92 ± 20.84 ml/min/m²
[4]; [14]
  GFR = CLTOT IOH: 97.87 ± 16.05 ml/min/m²
[4]; male, Landrace × Large White × Maximus (Seghers Hybrid), pig, plasma, intravenous, 64.7 mg/kg BW
  clearance: 4.12 ± 0.54 mL/min/kg
[4]; [12]
  clearance: 4.12 ± 0.54 mL/min/kg

## Nc1ccc(C(=O)NCC(=O)O)cc1 [PAH, para-aminohippuric acid]
Plasma proteins [6]
  Fu, free, non-protein bound, fraction: 1.0
[1]
  CLR: 9.51 ± 2.44 mL/min/kg
[7]; ref Prescott et al., 1993
  Nonrenal clearance as share of total drug elimination: 15 to 30%
[7]; ref Tett et al., 2003
  Plasma concentration at which saturation of the transport system is observed: 300 to 600 µg/mL
Porcine kidney
  Amount of PAH acetylated by the porcine kidney, mean: −0.1%
[3]; [11]
  ERPF = CLR PAH: 247.09 ml/min/m² and 247.09 ± 77.25 ml/min/m²
  Net tubular secretion (CLSECR): 189.95 ml/min/m² and 189.95 ± 70.90 ml/min/m²
[3]; corrected for mean BW 72 kg
  ERPF = CLR PAH: 6.48 ± 2.02 mL/min/kg
  Net tubular secretion (CLSECR): 4.99 mL/min/kg and 4.99 ± 1.86 mL/min/kg
[4]; [14]
  ERPF = CLR PAH: 226.77 ml/min/m² and 226.77 ± 62.45 ml/min/m²
[4]; 7-week-old male pigs, indexed to BW, mean ± SD
  ERPF = CLR PAH: 9.51 ± 2.44 mL/min/kg
[4]; IV bolus, 7-week-old male pigs, fraction of dose recovered unchanged in urine, n = 6
  Urinary recovery: 30.09 ± 5.06%
[4]; IV bolus, 7-week-old male pigs, n = 6, CLTOT minus CLR, mean ± SD
  CLNR: 22.02 mL/min/kg and 22.02 ± 3.76 mL/min/kg
[4]; IV bolus, 7-week-old male pigs, urine collected over 48 h, n = 6, mean ± SD
  Ae, cumulative amount of unchanged compound recovered in the urine: 29,512 ± 5751 µg
[4]; Table 1, IV bolus, 7-week-old male pigs, iohexol n = 8, others n = 6, mean ± SD
  CLTOT: 31.53 ± 5.38 mL/min/kg
[4]; pigs
  Contribution of nonrenal elimination to total clearance: approximately 70%
[4]; pigs, IV bolus 10 mg/kg BW
  PAH plasma concentrations reached: below 30 µg/ml

## CC(C)NC[C@@H](O)COc1cccc2[nH]ccc12 [R-pindolol]
Plasma proteins [6]
  Fu, free, non-protein bound, fraction: 0.19 ± 0.03^3

## CC(C)NC[C@H](O)COc1cccc2[nH]ccc12 [S-pindolol]
Plasma proteins [6]
  Fu, free, non-protein bound, fraction: 0.62 ± 0.00^3

## CC(C)NCC(O)COc1cccc2[nH]ccc12 (centres unmarked) [pindolol]
Plasma proteins [8]
  fu: 0.45
ERPF and GFR
  Effect on ERPF and GFR: slight but insignificant decrements in ERPF and GFR
[9]
  Hemodynamical changes: did not induce any hemodynamical changes
[10]
  Urinary excretion of unchanged pindolol: 35%
GFR; IV administration
  Decrease in GFR against baseline, average: 4.37%
  Decrease in GFR against baseline, range: 0.96−9.43%
GFR; oral administration
  Effect on GFR against baseline: no significant effect

## sinistrin
[3]; [11]
  GFR (renal clearance of sinistrin): 68.78 ± 21.16^2 ml/min/m²
[3]; corrected for mean BW 72 kg
  GFR (renal clearance of sinistrin): 1.81 ± 0.56^2 ml/min/kg
